Patent US20220340597A1, “HEXAHYDRO-1H-PYRAZINO[1,2-A]PYRAZINE COMPOUNDS FOR THE TREATMENT OF AUTOIMMUNE DISEASE” (Hoffmann-La Roche Inc., priority 2019, published 2022)

Key:
[1] = molecular target: T1, human TLR9 (Homo sapiens, UniProt Q9NR96); assay: HEK293-Blue-hTLR-9 cells assay; type: cell-based; details: HEK293-Blue-hTLR9 cells, ODN2006 stimulation, 20 hrs, SEAP reporter; read-out: HEK/hTLR9 IC50
T1 construct: host or cells: HEK293 (HEK-Blue hTLR9)
T1 sequence (Q9NR96 26-1032): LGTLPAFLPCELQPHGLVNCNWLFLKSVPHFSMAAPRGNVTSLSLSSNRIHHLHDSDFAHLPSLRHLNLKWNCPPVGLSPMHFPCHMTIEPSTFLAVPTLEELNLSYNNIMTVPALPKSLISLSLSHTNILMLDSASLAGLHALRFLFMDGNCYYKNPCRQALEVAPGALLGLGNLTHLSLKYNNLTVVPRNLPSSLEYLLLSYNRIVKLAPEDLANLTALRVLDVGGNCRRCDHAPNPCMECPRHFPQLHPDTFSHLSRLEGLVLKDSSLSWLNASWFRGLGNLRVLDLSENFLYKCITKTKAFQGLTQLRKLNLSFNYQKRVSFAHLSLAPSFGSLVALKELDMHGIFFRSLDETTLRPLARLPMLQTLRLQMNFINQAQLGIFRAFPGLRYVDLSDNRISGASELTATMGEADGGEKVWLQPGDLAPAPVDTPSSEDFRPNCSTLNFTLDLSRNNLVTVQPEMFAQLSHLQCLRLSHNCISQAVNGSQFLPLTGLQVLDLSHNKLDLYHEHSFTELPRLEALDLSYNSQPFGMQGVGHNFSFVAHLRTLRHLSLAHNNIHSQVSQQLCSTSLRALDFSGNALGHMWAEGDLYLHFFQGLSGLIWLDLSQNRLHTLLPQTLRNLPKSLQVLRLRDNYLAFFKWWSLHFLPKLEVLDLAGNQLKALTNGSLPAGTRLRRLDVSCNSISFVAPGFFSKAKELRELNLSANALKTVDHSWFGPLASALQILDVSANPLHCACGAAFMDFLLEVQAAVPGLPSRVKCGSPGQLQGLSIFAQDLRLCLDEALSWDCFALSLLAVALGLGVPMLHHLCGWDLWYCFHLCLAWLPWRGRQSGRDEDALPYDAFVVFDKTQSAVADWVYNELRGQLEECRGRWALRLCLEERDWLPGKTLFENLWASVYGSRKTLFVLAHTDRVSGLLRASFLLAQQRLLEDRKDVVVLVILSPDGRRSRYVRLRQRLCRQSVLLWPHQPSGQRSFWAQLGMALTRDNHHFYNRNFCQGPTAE
Protocol: The following tests were carried out in order to determine the activity of the compounds of formula (I) and (Ia) in HEK293-Blue-hTLR-7/8/9 cells assay.
HEK293-Blue-hTLR-9 Cells Assay:
A stable HEK293-Blue-hTLR-9 cell line was purchased from InvivoGen (Cat. #: hkb-htlr9, San Diego, Calif., USA). These cells were originally designed for studying the stimulation of human TLR9 by monitoring the activation of NF-κB. A SEAP (secreted embryonic alkaline phosphatase) reporter gene was placed under the control of the […] minimal promoter fused to five NF-κB and AP-1-binding sites. The SEAP was induced by activating NF-κB and AP-1 via stimulating HEK-Blue hTLR9 cells with TLR9 ligands. Therefore, the reporter expression was declined by TLR9 antagonist under the stimulation of a ligand, such as ODN2006 (Cat. #: tlr1-2006-1, Invivogen, San Diego, Calif., USA), for incubation of 20 hrs. The cell culture supernatant SEAP reporter activity was determined using QUANTI-Blue™ kit (Cat. #: rep-qb1, Invivogen, San Diego, Calif., USA) at a wavelength of 640 nm, a detection medium that turns purple or blue in the presence of alkaline phosphatase.
Then 20 μL of the supernatant from each well was incubated with 180 μL Quanti-blue substrate solution at 37° C. for 2 h and the absorbance was read at 620-655 nm using a spectrophotometer. The signaling pathway that TLR9 activation leads to downstream NF-κB activation has been widely accepted, and therefore similar reporter assay was modified for evaluating TLR9 antagonist.

[2] = molecular target: T2, hERG channel (Homo sapiens, UniProt Q12809); assay: hERG channel inhibition assay (patch-clamp, CHOhERG cells); type: cell-based; details: CHOhERG cells, whole-cell patch-clamp; for IC20: human, CHO cells stably expressing hERG (CHOhERG)
T2 construct: expressed in transfected cells; host or cells: CHO (Chinese hamster ovary), CHOhERG
Protocol: hERG Channel Inhibition Assay:
The hERG K^+ channels were cloned in humans and stably expressed in a CHO (Chinese hamster ovary) cell line. CHOhERG cells were used for patch-clamp (voltage-clamp, whole-cell) experiments. Cells were stimulated by a voltage pattern to activate hERG channels and conduct IKhERG currents (rapid delayed outward rectifier potassium current of the hERG channel). After the cells were stabilized for a few minutes, the amplitude and kinetics of IKhERG were recorded at a stimulation frequency of 0.1 Hz (6 bpm). Thereafter, the test compound was added to the preparation at increasing concentrations. For each concentration, an attempt was made to reach a steady-state effect, usually, this was achieved within 3-10 min at which time the next highest concentration was applied. The amplitude and kinetics of IKhERG are recorded in each concentration of the drug which were compared to the control values (taken as 100%). (references: Redfern W S, Carlsson L, Davis A S, Lynch W G, MacKenzie I, Palethorpe S, Siegl P K, Strang I, Sullivan A T, Wallis R, Camm A J, Hammond T G. 2003; Relationships between preclinical cardiac electrophysiology, clinical QT interval prolongation and torsade de pointes for a broad range of drugs: evidence for a provisional safety margin in drug development. Cardiovasc. Res. 58:32-45, Sanguinetti M C, Tristani-Firouzi M. 2006; hERG potassium channels and cardiac arrhythmia. Nature 440:463-469, Webster R, Leishman D, Walker D. 2002; Towards a drug concentration effect relationship for QT prolongation and torsades de pointes. Curr. Opin. Drug Discov. Devel. 5:116-26).
The calculation of hERG IC20/TLR7/8/9 IC50 below serves as early selectivity index to assess hERG liability.

T2 sequence (Q12809 whole entry): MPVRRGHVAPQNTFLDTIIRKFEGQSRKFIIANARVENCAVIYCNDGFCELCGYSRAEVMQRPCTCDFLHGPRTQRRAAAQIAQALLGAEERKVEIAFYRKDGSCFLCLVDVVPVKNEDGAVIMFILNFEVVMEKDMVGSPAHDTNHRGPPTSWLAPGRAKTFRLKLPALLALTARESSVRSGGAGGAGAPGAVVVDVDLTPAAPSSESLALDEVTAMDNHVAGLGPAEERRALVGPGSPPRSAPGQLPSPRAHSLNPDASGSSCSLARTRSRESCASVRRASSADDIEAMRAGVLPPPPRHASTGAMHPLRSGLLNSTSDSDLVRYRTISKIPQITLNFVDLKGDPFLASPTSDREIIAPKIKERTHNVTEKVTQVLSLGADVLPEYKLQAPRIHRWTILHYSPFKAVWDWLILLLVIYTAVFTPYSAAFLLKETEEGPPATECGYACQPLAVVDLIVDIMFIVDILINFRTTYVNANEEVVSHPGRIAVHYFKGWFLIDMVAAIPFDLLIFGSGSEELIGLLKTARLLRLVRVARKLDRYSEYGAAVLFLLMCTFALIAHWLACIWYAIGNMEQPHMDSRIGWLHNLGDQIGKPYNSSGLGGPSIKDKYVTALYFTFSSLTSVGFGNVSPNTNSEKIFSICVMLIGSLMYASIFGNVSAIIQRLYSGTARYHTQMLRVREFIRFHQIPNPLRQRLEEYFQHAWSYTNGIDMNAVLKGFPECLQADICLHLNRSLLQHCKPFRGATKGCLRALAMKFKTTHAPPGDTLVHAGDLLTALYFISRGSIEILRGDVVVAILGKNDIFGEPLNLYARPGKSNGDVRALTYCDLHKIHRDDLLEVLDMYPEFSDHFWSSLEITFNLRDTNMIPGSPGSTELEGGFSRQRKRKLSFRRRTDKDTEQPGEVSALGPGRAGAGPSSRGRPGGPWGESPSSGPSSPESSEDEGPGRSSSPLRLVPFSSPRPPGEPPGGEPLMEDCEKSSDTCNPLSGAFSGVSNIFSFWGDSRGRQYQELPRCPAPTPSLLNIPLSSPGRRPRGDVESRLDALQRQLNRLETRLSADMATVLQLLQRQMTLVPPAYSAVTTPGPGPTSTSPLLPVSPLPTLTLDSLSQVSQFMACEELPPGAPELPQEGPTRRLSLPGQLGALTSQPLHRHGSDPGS

SMILES | IC50 [1] | IC50 [2] | IC20 [2]
C[C@@H]1CN(c2ccc(C#N)c3ncccc23)C[C@@H]2CN(c3cncc4c3CCNC4)CCN21 [Example 44, 5-[(4R,9aR)-4-methyl-8-(5,6,7,8-tetrahydro-2,7-naphthyridin-4-yl)-3,4,6,7,9,9a-hexahydro-1H-pyrazino[1,2-a]pyrazin-2-yl]quinoline-8-carbonitrile] | 50 nM |  | 
[2H]c1ccc2c(N3C[C@@H]4CN(c5ncc(N6CC7(CC(N)C7)C6)cc5C)CCN4[C@H](C)C3)ccc(C#N)c2n1 [Example 101, 5-[(4R,9aR)-8-[5-(6-amino-2-azaspiro[3.3]heptan-2-yl)-3-methyl-2-pyridyl]-4-methyl-3,4,6,7,9,9a-hexahydro-1H-pyrazino[1,2-a]pyrazin-2-yl]-2-deuterio-quinoline-8-carbonitrile] | 81 nM |  | 
C[C@@H]1CN(c2ccc(C#N)c3ncccc23)C[C@@H]2CN(CCc3ccc(N4C[C@@H](N)[C@H](F)C4)nc3)CCN21 [Example 18, 5-[(4R,9aS)-8-[2-[6-[(3R,4R)-3-amino-4-fluoro-pyrrolidin-1-yl]-3-pyridyl]ethyl]-4-methyl-3,4,6,7,9,9a-hexahydro-1H-pyrazino[1,2-a]pyrazin-2-yl]quinoline-8-carbonitrile] | 65 nM |  | 
[2H]c1ccc2c(N3C[C@@H]4CN(CCc5ccc(N6C[C@@H](N)[C@@H](F)C6)nc5)CCN4[C@H](C)C3)ccc(C#N)c2n1 [Example 63, 5-[(4R,9aS)-8-[2-[6-[(3R,4S)-3-amino-4-fluoro-pyrrolidin-1-yl]-3-pyridyl]ethyl]-4-methyl-3,4,6,7,9,9a-hexahydro-1H-pyrazino[1,2-a]pyrazin-2-yl]-2-deuterio-quinoline-8-carbonitrile] | 78 nM |  | 

Further lines, with some results ahead:

IC50 [1] | SMILES | IC50 [2] | IC20 [2]
70 nM | [2H]c1ccc2c(N3C[C@@H]4CN(c5ncc(N6CCOC[C@H](N)C6)cc5C)CCN4[C@@H](C)C3)ccc(C#N)c2n1 [Example 110, 5-[(4S,9aR)-8-[5-[(6R)-6-amino-1,4-oxazepan-4-yl]-3-methyl-2-pyridyl]-4-methyl-3,4,6,7,9,9a-hexahydro-1H-pyrazino[1,2-a]pyrazin-2-yl]-2-deuterio-quinoline-8-carbonitrile] |  | 
117 nM | C[C@@H]1CN(c2ccc(C#N)c3ncccc23)C[C@H]2CN(c3cccc4c3CCNC4)CCN21 (relative stereo) [Example 47] |  | 
47 nM | C[C@@H]1CN(c2ccc(C#N)c3ncccc23)C[C@@H]2CN(CCc3ccc(N4C[C@@H](N)[C@@H](F)C4)nc3)CCN21 [Example 17, 5-[(4R,9aS)-8-[2-[6-[(3R,4S)-3-amino-4-fluoro-pyrrolidin-1-yl]-3-pyridyl]ethyl]-4-methyl-3,4,6,7,9,9a-hexahydro-1H-pyrazino[1,2-a]pyrazin-2-yl]quinoline-8-carbonitrile] | > 20000 nM | > 10000 nM
50 nM | C[C@@H]1CN(c2ccc(C#N)c3ncccc23)C[C@H]2CN(c3cncc4c3CCNC4)CCN21 [Example 42, 5-[(4R,9aS)-4-methyl-8-(5,6,7,8-tetrahydro-2,7-naphthyridin-4-yl)-3,4,6,7,9,9a-hexahydro-1H-pyrazino[1,2-a]pyrazin-2-yl]quinoline-8-carbonitrile] | > 10000 nM | 4350 nM
